Data reported in article PMC8286842, “The structures of E. coli NfsA bound to the antibiotic nitrofurantoin; to 1,4-benzoquinone and to FMN” (Biochemical Journal, 2021).
pKi: −log10 of the molar value.

Molecular target: T1, NfsA (Escherichia coli, UniProt P17117)
T1 construct: untagged, dimer
T1 sequence (P17117 1-240): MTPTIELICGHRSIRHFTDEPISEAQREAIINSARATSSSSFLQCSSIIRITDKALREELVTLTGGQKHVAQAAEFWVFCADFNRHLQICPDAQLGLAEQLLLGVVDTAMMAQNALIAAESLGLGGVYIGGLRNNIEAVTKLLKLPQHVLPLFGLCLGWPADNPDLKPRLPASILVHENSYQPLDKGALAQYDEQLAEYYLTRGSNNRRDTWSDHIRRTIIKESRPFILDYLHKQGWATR
Assay: X-ray crystal structure at […] Å with a second FMN as ligand; steady-state inhibition kinetics
Assay type: biochemical

Cc1cc2nc3c(=O)[nH]c(=O)nc-3n(C[C@H](O)[C@H](O)[C@H](O)COP(=O)(O)O)c2cc1C [FMN]
pKi: ~5.10
